Test results published in patent US20070167408A1, “NOVEL ALKYL PHOSPHOLIPID DERIVATIVES WITH REDUCED CYTOTOXICITY AND USES THEREOF” (ZENTARIS GmbH, priority 2005, published 2007).
Converted amounts (≈) assume the structure as drawn.

Assays:
[1] = test system: Aspergillus fumigatus 040-200167; assay: Anti-fungal broth microdilution (MIC), fungus C; assay type: cell-based; settings: filamentous protocol, more than 50% growth inhibition, 48 to 72 h
Method in brief: (§1)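 Broth microdilution followed NCCLS M27-A for the Candida yeasts and M38-A for the Aspergillus filamentous strains, testing 64 down to 0.125 μg/ml in twofold steps against a 10^6 CFU/ml inoculum. For Aspergillus, MIC was read after 48 to 72 h at 35 °C as the concentration giving >50% visible growth inhibition.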

[2] = test system: Candida albicans ATCC 90028; assay: Anti-fungal broth microdilution (MIC), fungus E; assay type: cell-based; settings: yeast protocol, more than 80% inhibition, 48 h
Method in brief: as §1

With CCCCCCCCCCCCCCCCOP(=O)([O-])OCC[N+]1(C)CCCCC1 [Compound 2, Phosphoric acid hexadecyl ester 2-(1-methyl-piperidin-1-yl)-ethyl ester] the “MIC, fungus C” value [1] was 6 µg/mL (≈ 13.4 µM) and the “MIC, fungus E” value [2] was 1 µg/mL (≈ 2.23 µM).
